Data reported in US20260007133A1, “HERBICIDAL COMPOSITION COMPRISING AZINE COMPOUNDS” (BASF SE, priority 2022, published 2026).
“And” between values parts separate entries of the source, which are not always exact repeats. Identical values can stand only once.

Assays:
Type in all cases: in vivo
[1] = system: Avena fatua; test: Greenhouse pre-emergence (PRE) herbicidal test on AVEFA; conditions: use rate 4 gai/ha
Outline: (§1)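 First, each species was sown separately in loamy sand containing about 3.0% humus. Then the aqueous active compound was applied by finely distributing nozzles straight after sowing, pots were gently irrigated and covered with transparent hoods, and injury was assessed on a 0–100 scale at 20 DAT.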

[2] = system: Geranium pusillum; test: Greenhouse post-emergence (POST) herbicidal test on GERPU; conditions: Geranium pusillum, post-emergence; for inhibition at 4 g/ha: use rate 4 gai/ha
Outline: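 Sow or transplant seedlings into loamy-sand pots; grow to 3–15 cm; spray aqueous suspension/emulsion of actives from a 5% by weight emulsion concentrate; hold at 10-25° C or 20-35° C depending on species; score injury 0–100 at 20 DAT.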

[3] = system: Setaria viridis; test: Greenhouse pre-emergence (PRE) herbicidal test on SETVI; conditions: Setaria viridis, pre-emergence, 480 h; PRE, SETVI, use rate 2 gai/ha, 20 DAT; read-out: % activity
Outline: as §1

[4] = system: Alopecurus myosuroides; test: Greenhouse pre-emergence (PRE) herbicidal test on ALOMY
Outline: (§2)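 Herbicidal effect was assessed 20 DAT after pre-emergence treatment of sown pots, using a 0-100 scale where 100 means no emergence or destruction of at least the above-ground parts.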

[5] = system: Ipomoea hederacea; test: Greenhouse pre-emergence (PRE) herbicidal test on IPOHE; conditions: PRE, IPOHE, 20 DAT
Outline: as §1

[6] = system: SETFA; test: Greenhouse pre-emergence (PRE) herbicidal test on SETFA; conditions: Setaria faberi, use rate 1 gai/ha
[7] = system: Polygonum convolvulus; test: Greenhouse pre-emergence (PRE) herbicidal test on POLCO; conditions: Fallopia convolvulus, pre-emergence, use rate 1 gai/ha
Description: (§3) The culture containers used were plastic pots containing loamy sand with approximately 3.0% of humus as substrate. The seeds of the test plants were sown separately for each species.
For the pre-emergence treatment, the active compounds, suspended or emulsified in water, were applied directly after sowing by means of finely distributing nozzles. The containers were irrigated gently to promote germination and growth and subsequently covered with transparent plastic hoods until the plants had rooted. This cover caused uniform germination of the test plants unless this was adversely affected by the active compounds.
(§4) Depending on the species, the plants were kept at 10-25° C. and 20-35° C., respectively.
(§5) The test period extended over 2 to 4 weeks. During this time, the plants were tended and their response to the individual treatments was evaluated.
(§6) Evaluation was carried out using a scale from 0 to 100. 100 means no emergence of the plants, or complete destruction of at least the above-ground parts, and 0 means no damage or normal course of growth. A good herbicidal activity is given at values of at least 70, and very good herbicidal activity is given at values of at least 85.
(§7) If not stated differently, the respective components A and B, and if appropriate, C were formulated as a 5% by weight strength emulsion concentrate and, with addition of the amount of solvent system, introduced into the spray liquor used for applying the active compound.
(§8) As indicated application was either post emergent (POST) at the respective growth stage (GS) of the weed (BBCH code), or pre-emergent (PRE).
(§9) Assessment was 20 days after treatment (DAT).

[8] = system: Lolium multiflorum; test: Greenhouse pre-emergence (PRE) herbicidal test on LOLMU; conditions: Lolium multiflorum, pre-emergence; for inhibition at 1 g/ha: use rate 1 gai/ha
Outline: as §2

[9] = system: Echinochloa crus-galli; test: Greenhouse pre-emergence (PRE) herbicidal test on ECHCG; conditions: PRE, ECHCG, use rate 2 gai/ha, 20 DAT
[10] = system: Setaria viridis; test: Greenhouse post-emergence (POST) herbicidal test on SETVI; conditions: 480 h, 20 DAT
Method: as §3
(§10) For the post-emergence treatment, the test plants were grown to a plant height of from 3 to 15 cm, depending on the plant habit, and only then treated with the active compounds which had been suspended or emulsified in water. To this end, the test plants were either sown directly, and grown in the same containers, or they were first grown separately as seedlings and transplanted into the test containers a few days prior to treatment.
as §4, §5, §6, §7, §8, §9

[11] = system: Commelina benghalensis; test: Greenhouse post-emergence (POST) herbicidal test on COMBE; conditions: 480 h, use rate 16 gai/ha, 20 DAT
Method: as §3, §10, §4, §5, §6, §7, §8, §9

## COc1c(F)cc(F)c(F)c1Nc1nc(N)nc(C(C)(C)F)n1 [Compound I-1]
[1]
  inhibition at 4 g/ha: 70%
[2]; 480 h, POST, GERPU, use rate 2 gai/ha, 20 DAT, read-out: % activity
  inhibition at 2 g/ha: 0%
[2]; 480 h, POST, GERPU, 20 DAT
  inhibition at 4 g/ha: 0%
[2]; 480 h, POST, GERPU, use rate 8 gai/ha, 20 DAT, read-out: % activity
  inhibition at 8 g/ha: 50%
[2]; 480 h, POST, GERPU, use rate 16 gai/ha, 20 DAT
  inhibition at 16 g/ha: 70%
[2]; GERPU POST
  inhibition at 4 g/ha: 55%
[2]; POST, GERPU, use rate 1 gai/ha
  inhibition at 1 g/ha: 30%
[3]
  inhibition at 2 g/ha: 20%
[4]; ALOMY PRE, use rate 1 gai/ha
  % activity: 30%
[4]; Alopecurus myosuroides, pre-emergence, 480 h, PRE, ALOMY, use rate 1 gai/ha, 20 DAT
  inhibition at 1 g/ha: 10%
[4]; Alopecurus myosuroides, pre-emergence, ALOMY PRE, use rate 1 gai/ha
  inhibition at 1 g/ha: 15%
[4]; Alopecurus myosuroides, pre-emergence, ALOMY PRE, use rate 4 gai/ha
  inhibition at 4 g/ha: 90%
[5]; Ipomoea hederacea, pre-emergence, 480 h, use rate 8 gai/ha
  inhibition at 8 g/ha: 70%
[5]; Ipomoea hederacea, pre-emergence, 480 h, use rate 16 gai/ha
  inhibition at 16 g/ha: 75%
[5]; use rate 16 gai/ha
  % activity: 60%
[6]
  inhibition at 1 g/ha: 60%
[7]
  inhibition at 1 g/ha: 50%
[8]; 480 h, PRE, LOLMU, 20 DAT
  inhibition at 1 g/ha: 40%
[8]; 480 h, PRE, LOLMU, use rate 2 gai/ha, 20 DAT, read-out: % activity
  inhibition at 2 g/ha: 50%
[8]; LOLMU PRE
  inhibition at 1 g/ha: 20%
[8]; LOLMU PRE, use rate 4 gai/ha
  inhibition at 4 g/ha: 85%
[8]; PRE, LOLMU
  inhibition at 1 g/ha: 35%
[9]
  % activity: 35% and 65%
[10]; use rate 2 gai/ha
  inhibition at 2 g/ha: 5%
[10]; use rate 4 gai/ha
  inhibition at 4 g/ha: 70%
[11]
  inhibition at 16 g/ha: 75%
